Measurements: patent US9776995B2, “Bicyclic sulfonamide compounds as sodium channel inhibitors” (AMGEN INC., priority 2013, dated 2017)
pIC50: −log10 of the molar value. Where two headings read alike, the source gives them in different places.

Key:
Nav 1.7 = Nav 1.7 (Homo sapiens (Human), UniProt Q15858); assay: in-vitro Nav 1.7 PX data; format: cell-based
Nav 1.5 = Nav 1.5 (Homo sapiens (Human), UniProt Q14524); assay: in-vitro Nav 1.5 PX data; conditions: read-out: Nav 1.5 PX IC50
Nav 1.5, sequence (Q14524 whole entry): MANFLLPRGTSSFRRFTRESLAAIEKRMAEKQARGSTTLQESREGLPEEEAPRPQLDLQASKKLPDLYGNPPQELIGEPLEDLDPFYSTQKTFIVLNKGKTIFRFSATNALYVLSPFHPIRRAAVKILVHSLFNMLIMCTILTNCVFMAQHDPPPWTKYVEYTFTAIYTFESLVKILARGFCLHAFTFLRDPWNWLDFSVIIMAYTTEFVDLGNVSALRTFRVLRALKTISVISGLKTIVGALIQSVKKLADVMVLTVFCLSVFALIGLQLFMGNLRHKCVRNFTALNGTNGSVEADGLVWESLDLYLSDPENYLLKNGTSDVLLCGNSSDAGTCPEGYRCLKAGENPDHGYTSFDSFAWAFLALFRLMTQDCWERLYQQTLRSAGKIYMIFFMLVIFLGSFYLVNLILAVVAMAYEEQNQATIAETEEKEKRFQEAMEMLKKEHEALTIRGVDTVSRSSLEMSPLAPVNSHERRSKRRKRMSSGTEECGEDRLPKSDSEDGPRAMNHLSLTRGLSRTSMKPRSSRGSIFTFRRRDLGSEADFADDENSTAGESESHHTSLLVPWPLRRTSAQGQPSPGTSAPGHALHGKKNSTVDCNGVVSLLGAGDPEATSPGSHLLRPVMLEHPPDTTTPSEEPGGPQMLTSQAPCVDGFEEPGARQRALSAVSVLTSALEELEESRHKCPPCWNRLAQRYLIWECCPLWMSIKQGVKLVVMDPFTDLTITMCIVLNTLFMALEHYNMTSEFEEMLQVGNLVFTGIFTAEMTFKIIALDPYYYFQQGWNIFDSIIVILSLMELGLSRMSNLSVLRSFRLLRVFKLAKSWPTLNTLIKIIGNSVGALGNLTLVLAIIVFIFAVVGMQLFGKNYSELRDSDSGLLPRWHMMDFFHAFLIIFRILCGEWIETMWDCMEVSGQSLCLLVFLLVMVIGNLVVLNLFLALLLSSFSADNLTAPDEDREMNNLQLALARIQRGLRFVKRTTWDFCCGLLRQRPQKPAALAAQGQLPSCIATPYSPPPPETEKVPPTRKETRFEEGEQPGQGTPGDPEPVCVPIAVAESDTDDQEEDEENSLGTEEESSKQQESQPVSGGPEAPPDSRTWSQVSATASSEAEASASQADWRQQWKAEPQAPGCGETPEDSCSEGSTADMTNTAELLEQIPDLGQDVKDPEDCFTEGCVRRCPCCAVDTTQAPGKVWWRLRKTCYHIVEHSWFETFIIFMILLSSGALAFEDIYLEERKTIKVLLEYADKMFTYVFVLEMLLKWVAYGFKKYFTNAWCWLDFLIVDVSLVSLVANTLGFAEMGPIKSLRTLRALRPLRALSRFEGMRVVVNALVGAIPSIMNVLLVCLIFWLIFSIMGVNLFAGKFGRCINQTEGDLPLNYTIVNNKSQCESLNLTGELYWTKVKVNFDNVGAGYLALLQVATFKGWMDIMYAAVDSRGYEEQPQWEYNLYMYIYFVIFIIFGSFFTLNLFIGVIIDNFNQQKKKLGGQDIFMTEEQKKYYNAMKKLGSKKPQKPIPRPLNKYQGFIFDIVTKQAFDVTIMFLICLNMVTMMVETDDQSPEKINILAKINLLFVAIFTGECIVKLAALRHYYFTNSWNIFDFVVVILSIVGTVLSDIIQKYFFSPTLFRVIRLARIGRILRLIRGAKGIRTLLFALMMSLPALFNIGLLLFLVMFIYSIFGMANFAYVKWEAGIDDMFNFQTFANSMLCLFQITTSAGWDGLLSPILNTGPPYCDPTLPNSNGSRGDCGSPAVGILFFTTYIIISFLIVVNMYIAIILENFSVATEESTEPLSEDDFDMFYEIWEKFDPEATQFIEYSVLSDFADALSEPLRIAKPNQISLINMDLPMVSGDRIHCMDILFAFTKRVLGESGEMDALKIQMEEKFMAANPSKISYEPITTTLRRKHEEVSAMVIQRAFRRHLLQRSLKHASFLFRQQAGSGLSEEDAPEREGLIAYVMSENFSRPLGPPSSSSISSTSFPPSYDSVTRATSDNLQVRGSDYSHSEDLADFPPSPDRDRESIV

Nav 1.7, sequence (Q15858 whole entry): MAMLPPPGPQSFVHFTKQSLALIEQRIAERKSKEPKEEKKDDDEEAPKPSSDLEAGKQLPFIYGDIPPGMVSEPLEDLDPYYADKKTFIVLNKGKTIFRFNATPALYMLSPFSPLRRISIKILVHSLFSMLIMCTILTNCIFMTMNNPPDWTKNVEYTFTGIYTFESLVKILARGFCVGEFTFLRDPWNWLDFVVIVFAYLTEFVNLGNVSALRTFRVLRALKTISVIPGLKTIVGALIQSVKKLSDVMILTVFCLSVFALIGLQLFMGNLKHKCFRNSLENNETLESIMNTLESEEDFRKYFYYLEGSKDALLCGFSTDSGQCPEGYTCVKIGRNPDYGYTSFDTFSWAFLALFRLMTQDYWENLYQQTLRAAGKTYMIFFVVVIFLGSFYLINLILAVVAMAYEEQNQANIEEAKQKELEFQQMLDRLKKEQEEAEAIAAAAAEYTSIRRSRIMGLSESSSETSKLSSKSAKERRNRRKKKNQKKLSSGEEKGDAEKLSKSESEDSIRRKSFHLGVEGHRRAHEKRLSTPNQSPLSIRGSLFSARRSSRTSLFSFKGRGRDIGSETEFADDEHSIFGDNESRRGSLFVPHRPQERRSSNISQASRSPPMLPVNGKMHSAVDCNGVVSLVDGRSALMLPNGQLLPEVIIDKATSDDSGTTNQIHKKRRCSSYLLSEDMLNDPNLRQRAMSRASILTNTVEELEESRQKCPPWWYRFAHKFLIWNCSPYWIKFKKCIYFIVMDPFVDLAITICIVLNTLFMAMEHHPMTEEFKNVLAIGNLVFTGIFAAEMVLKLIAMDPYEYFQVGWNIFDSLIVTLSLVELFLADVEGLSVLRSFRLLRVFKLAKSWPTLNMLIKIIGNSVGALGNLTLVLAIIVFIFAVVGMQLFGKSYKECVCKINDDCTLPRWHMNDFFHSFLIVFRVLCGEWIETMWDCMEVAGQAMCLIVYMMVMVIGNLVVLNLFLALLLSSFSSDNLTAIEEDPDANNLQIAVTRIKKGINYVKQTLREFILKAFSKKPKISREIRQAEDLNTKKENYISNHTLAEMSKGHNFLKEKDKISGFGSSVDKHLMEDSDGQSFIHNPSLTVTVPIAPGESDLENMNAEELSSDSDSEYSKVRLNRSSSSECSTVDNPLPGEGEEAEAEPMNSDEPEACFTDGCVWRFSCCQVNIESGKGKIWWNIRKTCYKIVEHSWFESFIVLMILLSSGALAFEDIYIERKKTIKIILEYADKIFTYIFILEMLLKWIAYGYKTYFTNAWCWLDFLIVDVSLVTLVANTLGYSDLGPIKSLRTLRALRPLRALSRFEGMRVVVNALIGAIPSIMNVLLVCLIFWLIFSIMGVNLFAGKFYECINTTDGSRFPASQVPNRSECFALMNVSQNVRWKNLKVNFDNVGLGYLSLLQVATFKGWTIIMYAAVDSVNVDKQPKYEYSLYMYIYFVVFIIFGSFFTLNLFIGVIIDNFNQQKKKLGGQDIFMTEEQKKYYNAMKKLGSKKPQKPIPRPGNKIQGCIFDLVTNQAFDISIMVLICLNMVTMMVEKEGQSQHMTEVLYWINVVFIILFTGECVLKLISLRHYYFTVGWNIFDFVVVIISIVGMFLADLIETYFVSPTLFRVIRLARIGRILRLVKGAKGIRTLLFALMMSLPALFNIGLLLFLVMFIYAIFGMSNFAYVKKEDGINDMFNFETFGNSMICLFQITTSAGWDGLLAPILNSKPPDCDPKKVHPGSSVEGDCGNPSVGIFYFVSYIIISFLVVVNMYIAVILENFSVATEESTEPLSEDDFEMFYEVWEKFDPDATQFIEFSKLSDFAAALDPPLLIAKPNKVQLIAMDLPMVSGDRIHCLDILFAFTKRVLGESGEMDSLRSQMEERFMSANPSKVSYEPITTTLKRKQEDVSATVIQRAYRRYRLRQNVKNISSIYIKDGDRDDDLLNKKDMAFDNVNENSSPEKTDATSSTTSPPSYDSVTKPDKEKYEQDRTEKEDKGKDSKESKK

SMILES | pIC50 (Nav 1.7; in-vitro PX (PatchXpress) data) | pIC50 (Nav 1.7; in-vitro PX) | pIC50 (Nav 1.5; in-vitro PX (PatchXpress) data) | pIC50 (Nav 1.5; in-vitro PX)
COc1cc(-c2cc(F)cc(F)c2)c(C#N)cc1-c1ncnc2cc(S(=O)(=O)Nc3ccon3)ccc12 [Example 202, 4-(2-cyano-3′,5′-difluoro-5-methoxy-4-biphenylyl)-N-3-isoxazolyl-7-quinazolinesulfonamide] | 7.34 | – | < 5.00 | –
COc1cc(-c2cccc(F)c2)c(C#N)cc1-c1ncnc2cc(S(=O)(=O)Nc3ccon3)ccc12 [Example 203, 4-(2-cyano-3′-fluoro-5-methoxy-4-biphenylyl)-N-3-isoxazolyl-7-quinazolinesulfonamide] | 7.54 | – | < 5.00 | –
COc1cc(-c2cc(F)cnc2OC)ccc1-c1ccnc2cc(S(=O)(=O)Nc3nncs3)ccc12 [Example 209, 4-(4-(5-fluoro-2-methoxy-3-pyridinyl)-2-methoxyphenyl)-N-1,3,4-thiadiazol-2-yl-7-quinolinesulfonamide] | – | 6.48 | – | < 5.00
COc1cc(-c2cccc(F)c2)c(Cl)cc1-c1nn(C)c(=O)c2cc(S(=O)(=O)Nc3nncs3)ccc12 [Example 215, 1-(2-chloro-3′-fluoro-5-methoxy-4-biphenylyl)-3-methyl-4-oxo-N-1,3,4-thiadiazol-2-yl-3,4-dihydro-6-phthalazinesulfonamide] | – | 7.08 | – | < 5.00
COc1cc(-c2cc(C)cc(F)c2)c(C#N)cc1-c1nccc2cc(S(=O)(=O)Nc3nncs3)ccc12 [Example 222, 1-(2-cyano-3′-fluoro-5-methoxy-5′-methyl-4-biphenylyl)-N-1,3,4-thiadiazol-2-yl-6-isoquinolinesulfonamide] | – | 7.66 | – | < 5.00

Continued, in another order:

pIC50 (Nav 1.7; in-vitro PX (PatchXpress) data) | pIC50 (Nav 1.7; in-vitro PX) | SMILES | pIC50 (Nav 1.5; in-vitro PX (PatchXpress) data) | pIC50 (Nav 1.5; in-vitro PX)
– | 6.64 | N#CCOc1cc(-c2cccc(F)c2)ccc1-c1nccc2cc(S(=O)(=O)Nc3ccncn3)ccc12 [Example 208, 1-(3-(cyanomethoxy)-3′-fluoro-4-biphenylyl)-N-4-pyrimidinyl-6-isoquinolinesulfonamide] | – | < 4.52
– | 7.77 | COc1cc(-c2cccc(C(F)(F)F)c2)c(C#N)cc1-c1ncnc2cc(S(=O)(=O)Nc3ccon3)ccc12 [Example 211, 4-(2-cyano-5-methoxy-3′-(trifluoromethyl)-4-biphenylyl)-N-3-isoxazolyl-7-quinazolinesulfonamide] | – | < 5.00
– | 7.34 | COc1cc(-c2cc(F)cc(F)c2)c(C#N)cc1-c1ncnc2cc(S(=O)(=O)Nc3nncs3)ccc12 [Example 216, 4-(2-cyano-3′,5′-difluoro-5-methoxy-4-biphenylyl)-N-1,3,4-thiadiazol-2-yl-7-quinazolinesulfonamide] | – | < 5.00
– | 7.65 | COc1cc(-c2cccc(C)c2)c(C#N)cc1-c1nccc2cc(S(=O)(=O)Nc3nncs3)ccc12 [Example 217, 1-(2-cyano-5-methoxy-3′-methyl-4-biphenylyl)-N-1,3,4-thiadiazol-2-yl-6-isoquinolinesulfonamide] | – | < 5.00
– | 7.64 | COc1cc(-c2ccc(C)c(F)c2)c(C#N)cc1-c1nccc2cc(S(=O)(=O)Nc3nncs3)ccc12 [Example 218, 1-(2-cyano-3′-fluoro-5-methoxy-4′-methyl-4-biphenylyl)-N-1,3,4-thiadiazol-2-yl-6-isoquinolinesulfonamide] | – | < 5.00
– | 7.47 | COc1cc(-c2ccc(F)cc2)c(C#N)cc1-c1nccc2cc(S(=O)(=O)Nc3nncs3)ccc12 [Example 219, 1-(2-cyano-4′-fluoro-5-methoxy-4-biphenylyl)-N-1,3,4-thiadiazol-2-yl-6-isoquinolinesulfonamide] | – | < 5.00
– | 7.94 | COc1cc(-c2cccc(C(F)(F)F)c2)c(C#N)cc1-c1ncnc2cc(S(=O)(=O)Nc3nncs3)ccc12 [Example 226, 4-(2-cyano-5-methoxy-3′-(trifluoromethyl)-4-biphenylyl)-N-1,3,4-thiadiazol-2-yl-7-quinazolinesulfonamide] | – | < 5.00
